Measurements reported in patent publication US11198695B2, “Fused ring derivative having MGAT-2 inhibitory activity” (Shionogi & Co., Ltd., priority 2017, dated 2021).
≈ marks a conversion by molar mass, not a printed value. Where “and” joins values, the source holds several entries; their conditions need not be identical. Equal entries are not always repeated. Where two headings read alike, the source gives them in different places.

Key:
recombinant human MGAT2 = recombinant human MGAT2 (Homo sapiens (Human), UniProt Q3SYC2); assay: Measurement of human MGAT2 inhibitory activity; format: biochemical
Method in brief: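 Membrane fraction of Sf9 cells expressing N-terminally Flag-tagged full-length human MGAT2, incubated 1 h at room temperature in 100 mmol/L phosphate pH 7.4 with 2 mmol/L DTT. The substrate solution held 30 μmol/L 2-oleoylglycerol and 10 μmol/L oleoyl-CoA. Diolein product was quantified by RapidFire ESI Q-TOF MS against diolein-d5 internal standard; % inhibition was set relative to with/without-enzyme controls.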

[1] = Metabolism stability test; format: in vitro ADME; conditions: human liver microsomes, 30 minutes, 37° C., NADPH, 0.5 μmol/L of test compound
Protocol: Using commercially available pooled human hepatic microsomes, the compound of the present invention was reacted for a constant time, a remaining rate was calculated by comparing a reacted sample and an unreacted sample, thereby, a degree of metabolism of the compound of the present invention in liver was assessed.
A reaction was performed (oxidative reaction) at 37° C. for 0 minute or 30 minutes in the presence of 1 mmol/L NADPH in 0.2 mL of a buffer (50 mmol/L Tris-HCl pH 7.4, 150 mmol/L potassium chloride, 10 mmol/L magnesium chloride) containing 0.5 mg protein/mL of human liver microsomes. After the reaction, 50 μL of the reaction solution was added to 100 μL of a methanol/acetonitrile=1/1 (v/v) solution, mixed and centrifuged at 3000 rpm for 15 minutes. The compound of the present invention in the supernatant was quantified by LC/MS/MS, and a remaining amount of the compound of the present invention after the reaction was calculated, letting a compound amount at 0 minute reaction time to be 100%. (Result) Remaining rate was shown at 0.5 μmol/L of test compound.

[2] = Solubility test (1% DMSO addition, pH 6.8 artificial intestinal juice); format: physicochemical; conditions: 16 hours at 25° C.; for solubility at 16 h: pH 6.8 artificial intestinal juice with 1% DMSO, kinetic from dmso stock
Protocol: The solubility of the compound of the present invention was determined under 1% DMSO addition conditions. 10 mmol/L solution of the compound was prepared with DMSO, and 6 μL of the solution of the compound of the present invention was added to 594 μL of pH 6.8 artificial intestinal juice (118 mL of 0.2 mol/L NaOH test solution and water were added to 250 mL of 0.2 mol/L potassium dihydrogen phosphate test solution to reach 1000 mL). The mixture was left standing for 16 hours at 25° C., and the mixture was vacuum-filtered. The filtrate was two-fold diluted with methanol/water=1/1 (V/V), and the compound concentration in the filtrate was measured with HPLC or LC/MS/MS by the absolute calibration method.

[3] = read-out: IC50 (concentration exhibiting 50% enzyme inhibition), Table 52
[4] = read-out: IC50 (concentration exhibiting 50% enzyme inhibition), Table 53

recombinant human MGAT2, sequence (Q3SYC2 whole entry): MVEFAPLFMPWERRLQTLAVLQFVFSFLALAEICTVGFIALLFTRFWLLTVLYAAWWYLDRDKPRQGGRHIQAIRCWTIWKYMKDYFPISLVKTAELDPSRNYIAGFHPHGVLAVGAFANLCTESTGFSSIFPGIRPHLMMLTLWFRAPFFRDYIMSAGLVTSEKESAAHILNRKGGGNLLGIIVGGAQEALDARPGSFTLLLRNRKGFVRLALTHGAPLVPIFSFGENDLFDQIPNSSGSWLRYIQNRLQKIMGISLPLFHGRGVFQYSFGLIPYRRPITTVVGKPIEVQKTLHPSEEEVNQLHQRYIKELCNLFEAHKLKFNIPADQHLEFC

Row | Structure (SMILES) | IC50 (recombinant human MGAT2; [3]) [nM] | Remaining rate (%) [1] [%] | solubility at 16 h [2] [µM] | Solubility [2] [µM] | IC50 (recombinant human MGAT2; [4])
1 | O=C1N[C@@]2(CCOc3cc(OCCCC(F)(F)F)ccc32)Cc2nn(CCC3CC3)c(-c3nn[nH]n3)c21 [Compound I-200] | 5.6 | 94 | > 50 |  | 
2 | Cc1ccc(-n2nc3c(c2NC(=O)CS(C)(=O)=O)C(=O)N[C@@]2(CCc4cc(OCC(F)(F)F)ccc42)C3)nc1 [Compound I-236] |  | 87.6 | > 50 |  | 
3 | Cc1ccc(-n2nc3c(c2NC(=O)CS(C)(=O)=O)C(=O)N[C@@]2(CCOc4cc(OCC(C)(F)F)ccc42)C3)nc1 [II-151] |  | 82.6 | > 50 |  | 
4 | O=C1N[C@@]2(CCc3cc(OCCCC(F)(F)F)ccc32)Cc2nn(CCC3CC3)c(-c3nn[nH]n3)c21 [Compound I-24] | 8.82 | 78.2 |  | >50 | 
5 | Cc1ccc(-n2nc3c(c2NC(=O)C2CS(=O)(=O)C2)C(=O)N[C@@]2(CCOc4cc(OCC(F)(F)F)ccc42)C3)nc1 [II-270] |  | 99.9 | > 50 |  | 1.26 nM
6 | CS(=O)(=O)CC(=O)Nc1c2c(nn1-c1ccc(F)cn1)C[C@]1(CCOc3cc(OCC(F)(F)F)ccc31)NC2=O [II-295] |  | 102 | > 50 |  | < 1 nM
7 | Cc1ccc(-n2nc3c(c2C(=O)NS(=O)(=O)C2CC2)C(=O)N[C@@]2(CCc4cc(OCC(F)(F)F)ccc42)C3)nc1 [II-202] |  | 98.7 | > 50 |  | 9.13 nM and < 1 nM
8 | CS(=O)(=O)CC(=O)Nc1c2c(nn1CCCOC(F)(F)F)C[C@@]1(CCc3cc(OCC(F)(F)F)cc(F)c31)NC2=O [II-93] |  | 103 | > 50 |  | 
9 | CS(=O)(=O)CC(=O)Nc1c2c(nn1-c1ccc(F)c(F)c1)C[C@]1(CCOc3cc(CCC(F)(F)F)ccc31)NC2=O [II-225] |  | 104 | 45.1 (≈ 27 µg/mL) |  | 
10 | CS(=O)(=O)CC(=O)Nc1c2c(nn1-c1ccccn1)C[C@]1(CCc3cc(OCCCC(F)(F)F)ccc31)NC2=O [Compound I-23] |  | 98.7 | 48.2 (≈ 27.8 µg/mL) |  | 
11 | CS(=O)(=O)CC(=O)Nc1c2c(nn1CCCC(F)(F)F)C[C@@]1(CCc3cc(OCC(F)(F)F)ccc31)NC2=O [Compound I-212] |  | 62.6 | > 50 |  | 
12 | Cc1ccc(-n2nc3c(c2NC(=O)CS(C)(=N)=O)C(=O)N[C@@]2(CCc4cc(OCC(F)(F)F)ccc42)C3)nc1 (single isomer, unassigned) [II-276] |  | 98.2 | > 50 |  | 2.2 nM
13 | Cc1ccc(-n2nc3c(c2NC(=O)CS(C)(=O)=O)C(=O)N[C@@]2(CCOc4cc(OCC(F)(F)F)ccc42)C3)nc1 [Compound I-275] |  | 91.8 | > 50 |  | 
14 | CS(=O)(=O)CC(=O)Nc1c2c(nn1CCCOC(F)(F)F)C[C@@]1(CCOc3cc(OCC(F)(F)F)ccc31)NC2=O [II-121] |  | 89.7 |  | >50 | 2.91 nM
15 | CS(=O)(=O)CC(=O)Nc1c2c(nn1-c1ccc(C#N)cn1)C[C@]1(CCc3cc(N4CC(F)(F)C4)ccc31)NC2=O [Compound I-67] | 7 | 89 | > 50 |  | 
16 | CS(=O)(=O)CC(=O)Nc1c2c(nn1CCC1CC1)C[C@]1(CCc3cc(OCC(F)(F)F)ccc31)NC2=O [Compound I-8] |  | 102 | > 50 |  | 
17 | CS(=O)(=O)CC(=O)Nc1c2c(nn1-c1ccc(C(F)F)cc1)C[C@]1(CCc3cc(OCC(F)(F)F)ccc31)NC2=O [II-174] |  | 99.9 | 32.4 (≈ 19.4 µg/mL) |  | 
18 | CS(=O)(=O)CC(=O)Nc1c2c(nn1-c1ccc(C#N)cn1)C[C@@]1(CCc3cc(OCC(F)(F)F)ccc31)NC2=O [Compound I-167] | 3.3 | 89 | > 50 |  | 
19 | Cc1cc(-n2nc3c(c2NC(=O)CS(C)(=O)=O)C(=O)N[C@@]2(CCOc4cc(OCCCC(F)(F)F)ccc42)C3)no1 [II-233] |  | 94.7 | > 50 |  | 0.224 nM
20 | CS(=O)(=O)CC(=O)Nc1c2c(nn1-c1ccc(C#N)cn1)C[C@]1(CCc3cc(OCC(F)(F)F)ccc31)NC2=O [Compound I-190] |  | 96.6 | > 50 |  | 
21 | CS(=O)(=O)CC(=O)Nc1c2c(nn1-c1ccc(C#N)cn1)C[C@](c1ccc(OCC(F)(F)F)cc1F)(C(F)(F)F)NC2=O [Compound I-170] | 5.1 | 100 | > 50 |  | 
22 | CSCC(=O)Nc1c2c(nn1CCC1CC1)C[C@]1(CCc3cc(OCC(F)(F)F)ccc31)NC2=O [II-38] |  |  |  |  | 30 nM
23 | COc1cccc(-n2nc3c(c2NC(=O)CS(C)(=O)=O)C(=O)N[C@@]2(CCc4cc(OCC(F)(F)F)ccc42)C3)c1 [Compound I-244] | 110 |  |  |  | 
24 | CCOc1ccc2c(c1)OCC[C@]21Cc2nn(-c3ccc(C)cn3)c(NC(=O)CS(C)(=O)=O)c2C(=O)N1 [II-145] |  |  |  |  | 6.43 nM
25 | CS(=O)(=O)CC(=O)Nc1c2c(nn1CCc1ccccc1)C[C@]1(CCc3cc(OCCCC(F)(F)F)ccc31)NC2=O [Compound I-52] | 24 |  |  |  | 
26 | CC(C)(C)c1cc(-n2nc3c(c2NC(=O)CS(C)(=O)=O)C(=O)N[C@@]2(CCOc4cc(OCC(F)(F)F)ccc42)C3)no1 [II-257] |  |  |  |  | 0.409 nM
27 | CS(=O)(=O)CC(=O)Nc1nn(CCn2cccn2)c2c1C(=O)N[C@@]1(CCc3cc(OCCCC(F)(F)F)ccc31)C2 [Compound I-66] | 970 |  |  |  | 
28 | CS(=O)(=O)CC(=O)Nc1c2c(nn1-c1ccccn1)C[C@]1(CCc3cc(OCC(F)(F)F)cc(F)c31)NC2=O [Compound I-185] | 6.3 |  |  |  | 
29 | Cc1ccc(-n2nc3c(c2C(=O)NS(C)(=O)=O)C(=O)N[C@@]2(CCc4cc(OCC(F)(F)F)ccc42)C3)cc1F [II-223] |  |  |  |  | 52.4 nM
